We go through 24 molecules from article PMC11859905, “Flavonoids as Potential Modulators of Pancreatic Lipase Catalytic Activity” (Pharmaceutics, 2025).

Like-named read-outs stand apart in the source and are kept apart here.

Assay [1] addresses T1, porcine pancreatic lipase (Sus scrofa, UniProt P00591).
T1 sequence (P00591 1-450): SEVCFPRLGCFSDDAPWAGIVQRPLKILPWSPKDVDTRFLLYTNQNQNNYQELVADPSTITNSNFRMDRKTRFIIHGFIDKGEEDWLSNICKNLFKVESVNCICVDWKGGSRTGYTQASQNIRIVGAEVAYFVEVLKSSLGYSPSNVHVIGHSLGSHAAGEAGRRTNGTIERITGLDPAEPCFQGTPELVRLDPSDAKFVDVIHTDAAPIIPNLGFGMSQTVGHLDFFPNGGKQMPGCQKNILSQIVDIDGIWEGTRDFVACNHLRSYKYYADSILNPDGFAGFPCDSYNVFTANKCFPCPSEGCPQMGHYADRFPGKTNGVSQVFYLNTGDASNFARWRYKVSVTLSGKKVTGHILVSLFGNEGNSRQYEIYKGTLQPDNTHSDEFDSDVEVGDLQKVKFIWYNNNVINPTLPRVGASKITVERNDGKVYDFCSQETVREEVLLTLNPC
Description: In vitro assay using porcine pancreatic lipase (4-MUO hydrolysis, fluorometric).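 As to all read-outs here: product 4-methylumbeliferone formation tracked fluorometrically, catalytic rate from RFU slope over the 10–30 min window, compounds checked beforehand for own fluorescence, at least three independent experiments.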 To be noted: for inhibitory activity against PPL (in words): at the maximum concentration that could be tested.

For assay [2], the target named is T2, human pancreatic lipase (Homo sapiens, UniProt P16233).
T2 construct: PL from the human pancreas (triacylglycerol acyl hydrolase, EC 3.1.1.3); from tissue; host or cells: human pancreas
T2 sequence (P16233 17-465): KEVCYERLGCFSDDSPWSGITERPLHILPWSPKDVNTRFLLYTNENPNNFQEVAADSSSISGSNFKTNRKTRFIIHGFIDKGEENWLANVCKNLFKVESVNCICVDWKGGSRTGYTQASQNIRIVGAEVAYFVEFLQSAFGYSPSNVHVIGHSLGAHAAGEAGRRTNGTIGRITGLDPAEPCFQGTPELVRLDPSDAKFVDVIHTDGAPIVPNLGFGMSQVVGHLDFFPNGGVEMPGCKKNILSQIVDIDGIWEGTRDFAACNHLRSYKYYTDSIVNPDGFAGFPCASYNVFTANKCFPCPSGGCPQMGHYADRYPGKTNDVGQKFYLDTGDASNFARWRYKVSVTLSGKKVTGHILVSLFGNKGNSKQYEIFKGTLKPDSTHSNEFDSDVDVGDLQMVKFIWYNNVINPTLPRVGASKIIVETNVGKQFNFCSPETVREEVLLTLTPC
As to the kind of experiment: In vitro assay using human pancreatic lipase (4-MUO hydrolysis, fluorometric).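 As to all read-outs here: Read-out is the initial rate of fluorescent 4-MU release as HPL cleaves the 4-MUO substrate, a rate that scales with the amount of enzyme.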 Type of assay: biochemical. The note with it: for IC50: human PL 2 U/mL, 4-MUO 0.05 mM, mean ± SEM; for inhibitory activity against HPL (in words): at the maximum concentration that could be tested.

The target in assay [3] is T2, human pancreatic lipase. Description: Inhibition kinetics of human pancreatic lipase (nonlinear regression, Solver). The class given is biochemical.
Assay [4] concerns the target T1, porcine pancreatic lipase. As to the kind of experiment: Inhibition kinetics of porcine pancreatic lipase (nonlinear regression, Solver). The arrangement: compare it to the effects of the porcine pancreas (type II, EC 3.1.1.3); from tissue; host or cells: porcine pancreas (type II preparation). The note with it: for Inhibition Model / Ki / Vmax: porcine pancreatic lipase; for Ki / Vmax: ± SEM; for Vmax: in µmol/min. Type of assay: biochemical.

For assay [5], the target named is T1, porcine pancreatic lipase. The arrangement: compare it to the effects of the porcine pancreas (type II, EC 3.1.1.3); from tissue; host or cells: porcine pancreas (type II preparation). The note with it: not calculated in this paper; cited from earlier work.
Setting [6] is: competitive constant, read-out: Kic.
The mark [7] stands for this setting: read-out: PL Inhibition (%) ± SEM, Human.
Where [8] appears, read: read-out: PL Inhibition (%) ± SEM, Porcine.
The mark [9] stands for this setting: at 50 μM, read-out: PL Inhibition (%) ± SEM, Human.

Usually IC50 stands for the concentration at which inhibition is half-maximal. In the case of `CCCCCCCCCCc1c(-c2ccc(O)c(O)c2)oc2cc(O)cc(O)c2c1=O` [Flavonoid 30], the half-maximal inhibitory concentration (IC50) in assay [1] was found to be 7.3 ± 0.6 µM; against human pancreatic lipase [2] it was 3.2 ± 0.1 µM. The “Inhibition Model” value at human pancreatic lipase [3] (human pancreatic lipase) was “mixed-type”; in assay [4], “Competitive”. Besides, the Ki at human pancreatic lipase [3] (human pancreatic lipase, first Kic column of Table 4, ± SEM) was 1.3 ± 0.3 µM; in assay [4] (setting [6]) it was 1.78 ± 0.04 µM. Further, the Vmax at human pancreatic lipase [3] (human pancreatic lipase, ± SEM) is 260 ± 10; in assay [4] it was 507 ± 4. Further, the “potency against HPL from Kic, times higher than 38 (myricetin)” value at human pancreatic lipase [3] (versus 38) was “approximately 60”. Also, the “binding affinity to PPL, times higher than the other compounds (from Kic)” value in assay [4] (versus 38, 27 and 41) is given as “approximately 10”.

By inhibition is commonly meant how much of the control response was suppressed. Consider `O=c1c(O)c(-c2ccc(O)c(O)c2)oc2cc(O)cc(O)c12` [Flavonoid 27, Quercetin], for which the inhibition at 75 µM on human pancreatic lipase [2] (read-out: PL Inhibition (%) ± SEM, Human, at 75 μM) was under 46%. In assay [4], the “Inhibition Model” value is listed as “Competitive” and the Vmax stood at 354 ± 3.

In turn, `O=C(O[C@@H]1Cc2c(O)cc(O)cc2O[C@@H]1c1cc(O)c(O)c(O)c1)c1cc(O)c(O)c(O)c1` [Flavonoid 41, (–)-Epigallocatechin gallate] yielded an IC50 in assay [1] of 32 ± 4 µM. Further, at human pancreatic lipase [2] (setting [7]), the inhibition at 100 µM is under 30%. In assay [4], the “Inhibition Model” value was “Competitive” and the Vmax came to 680 ± 7. Further, the Ki in assay [4] (setting [6]) was determined as 21 ± 3 µM.

Take `O=c1cc(-c2ccccc2)oc2cc(O)ccc12` [Flavonoid 9]: the inhibition at 50 µM is under 30% in assay [1] (setting [8]) and under 30% at human pancreatic lipase [2] (read-out: PL Inhibition (%) ± SEM, Human, at 50 μM).

`O=c1cc(-c2ccccc2)oc2cc(O)cc(O)c12` [Flavonoid 13, Chrysin]: the inhibition at 50 µM (in assay [1] (setting [8]); at human pancreatic lipase [2] (setting [9])) was under 30% each time.

As for `O=c1cc(-c2cccc(O)c2)oc2cc(O)cc(O)c12` [Flavonoid 14], the IC50 in assay [1] is 73 ± 7 µM; at human pancreatic lipase [2], 54 ± 5 µM.

Regarding `O=c1cc(-c2ccc(O)c(O)c2)oc2c(O)c(O)ccc12` [Flavonoid 43], the inhibition at 50 µM (in assay [1] (setting [8]); on human pancreatic lipase [2] (setting [9])) was under 30% each time.

On to `O=c1c(O[C@@H]2O[C@H](CO)[C@@H](O)[C@H](O)[C@H]2O)c(-c2ccc(O)cc2)oc2cc(O)cc(O)c12` [Flavonoid 25, Astragalin], for which the “inhibitory activity against PPL (in words)” value in assay [1] was “did not show significant inhibitory activity”. In addition, the inhibition at 50 µM in assay [1] (setting [8]) was under 30%; on human pancreatic lipase [2] (setting [9]), 34 ± 1%. For the same molecule, the “inhibitory activity against HPL (in words)” value against human pancreatic lipase [2] is “did not show significant inhibitory activity”.

Consider `Oc1cc(O)c2c(c1)OC(c1cc(O)c(O)c(O)c1)C(O)C2` (single isomer, unassigned; (-)) [Flavonoid 40, (–)-Epigallocatechin], for which the inhibition at 100 µM (in assay [1] (setting [8]); on human pancreatic lipase [2] (setting [7])) was under 30% each time.

Regarding `Oc1cc(O)c2c(c1)O[C@H](c1ccc(O)c(O)c1)[C@H](O)C2` [Flavonoid 39, (–)-Epicatechin], the inhibition at 100 µM (in assay [1] (setting [8]); at human pancreatic lipase [2] (setting [7])) was under 30% throughout.

Turning to `O=c1c(O)c(-c2ccc(O[C@@H]3O[C@H](CO)[C@@H](O)[C@H](O)[C@H]3O)c(O)c2)oc2cc(O)cc(O)c12` [Flavonoid 34, Spiraeoside], the “inhibitory activity against PPL (in words)” value in assay [1] is “did not show significant inhibitory activity”. Moreover, the inhibition at 50 µM (in assay [1] (setting [8]); at human pancreatic lipase [2] (setting [9])) was under 30% each time. Besides, at human pancreatic lipase [2], the “inhibitory activity against HPL (in words)” value was “did not show significant inhibitory activity”.

Consider `O=c1cc(-c2ccccc2)oc2c(O)c(O)cc(O)c12` [Flavonoid 42, Norwogonin], for which the results for the half-inhibitory concentration (IC50) (in assay [1]; at human pancreatic lipase [2]) were 98 ± 9 µM and 79 ± 3 µM, respectively.

With `O=c1c(O)c(-c2ccc(O)c(O)c2)oc2cc(O[C@@H]3O[C@H](CO)[C@@H](O)[C@H](O)[C@H]3O)cc(O)c12` [Flavonoid 33, Quercimeritrin], the “inhibitory activity against PPL (in words)” value in assay [1] is given as “did not show significant inhibitory activity”. The inhibition at 50 µM (in assay [1] (setting [8]); on human pancreatic lipase [2] (setting [9])) was under 30% in each case. In addition, the “inhibitory activity against HPL (in words)” value on human pancreatic lipase [2] is “did not show significant inhibitory activity”.

For the molecule `O=c1cc(-c2cccc(O)c2)oc2ccccc12` [Flavonoid 2], the inhibition at 100 µM (in assay [1] (setting [8]); on human pancreatic lipase [2] (setting [7])) was under 30% throughout.

Regarding `O=c1cc(-c2ccc(O)cc2)oc2cc(O)cc(O)c12` [Flavonoid 15, Apigenin], the IC50 turned out to be 41 ± 1 µM in assay [1] and 75 ± 2 µM on human pancreatic lipase [2].

Consider `O=c1cc(-c2cccc(O)c2)oc2cc(O)ccc12` [Flavonoid 10], for which the inhibition at 100 µM (in assay [1] (setting [8]); at human pancreatic lipase [2] (setting [7])) was under 30% in each case.

As to `O=c1c(O)c(-c2ccc(O)c(O)c2)oc2ccccc12` [Flavonoid 18], in assay [1], the “inhibitory activity against PPL (in words)” value is “did not show significant inhibitory activity”. Also, the results for the inhibition at 50 µM (in assay [1] (setting [8]); on human pancreatic lipase [2] (setting [9])) were 41 ± 4% and 44 ± 5%, respectively. The “inhibitory activity against HPL (in words)” value at human pancreatic lipase [2] was “did not show significant inhibitory activity”.

Regarding `O=c1c(O)c(-c2cc(O)c(O)c(O)c2)oc2cc(O)cc(O)c12` [Flavonoid 38, Myricetin], the concentration for half-maximal inhibition (IC50) in assay [1] amounted to 16 ± 1 µM; on human pancreatic lipase [2], 25 ± 2 µM. The “Inhibition Model” value at human pancreatic lipase [3] (human pancreatic lipase) is “Noncompetitive”. Also, the Ki in assay [4] (setting [6]) was 12 ± 0.8 µM; in assay [4] (uncompetitive constant, read-out: Kiu) it was 58 ± 3 µM.

Consider `O=c1c(O)c(-c2ccc(O)cc2)oc2cc(OC3OC(CO)C(O)C(O)C3O)cc(O)c12` (centres unmarked) [Flavonoid 26, Populnin], for which the “inhibitory activity against PPL (in words)” value in assay [1] is “did not show significant inhibitory activity”. Further, the inhibition at 100 µM (in assay [1] (setting [8]); on human pancreatic lipase [2] (setting [7])) was under 30% each time. Moreover, the “inhibitory activity against HPL (in words)” value at human pancreatic lipase [2] is “did not show significant inhibitory activity”.

`O=c1cc(-c2cccc(O)c2)oc2cccc(O)c12` [Flavonoid 6]: the inhibition at 25 µM in assay [1] (setting [8]) was under 30%; at human pancreatic lipase [2] (at 25 μM, read-out: PL Inhibition (%) ± SEM, Human), 32.3 ± 0.1%.

As for `O=c1c(O)c(-c2ccc(O)cc2)oc2cc(O)cc(O)c12` [Flavonoid 24, Kaempferol], in assay [1] (read-out: IC50 (μM) ± SEM, Porcine, porcine PL 0.04 mg/mL, 4-MUO 0.05 mM, mean ± SEM), the IC50 was 79 ± 6 µM. Moreover, at human pancreatic lipase [2] (setting [7]), the inhibition at 100 µM was 39 ± 3%.

As to `O=c1c(OC2OC(CO)C(O)C(O)C2O)c(-c2ccc(O)c(O)c2)oc2cc(O)cc(O)c12` (centres unmarked) [Flavonoid 31], the “inhibitory activity against PPL (in words)” value in assay [1] is reported as “did not show significant inhibitory activity”. In addition, the inhibition at 50 µM (in assay [1] (setting [8]); on human pancreatic lipase [2] (setting [9])) was under 30% in each case. Besides, the “inhibitory activity against HPL (in words)” value at human pancreatic lipase [2] was “did not show significant inhibitory activity”.

Consider `CCCCCCCCCCC[C@@H](C[C@@H]1OC(=O)[C@H]1CCCCCC)OC(=O)[C@H](CC(C)C)NC=O` [Orlistat], for which the “type of PL inhibition” value in assay [5] is reported as “irreversible”.

On to `O=c1cc(-c2ccc(O)c(O)c2)oc2ccccc12` [Flavonoid 4], for which the inhibition at 100 µM (in assay [1] (setting [8]); on human pancreatic lipase [2] (setting [7])) was under 30% throughout.
